Experimental data published in publication PMC10287695, “Non-covalent inhibitors of thioredoxin glutathione reductase with schistosomicidal activity in vivo” (Nature Communications, 2023).
“And” between values parts separate entries of the source, which are not always exact repeats. Identical values can stand only once. Like-named read-outs stand apart in the source and are kept apart here.

Columns and labels:
Type in all cases: biochemical
[1] = biological target: T1, TGR (Schistosoma mansoni, UniProt Q962Y6); experiment: Reversibility by jump dilution; details: for % Activity (ID list), D60 / % Inhibition (ID list), D60: D60: diluted 1:100, activity determined after 60 min; for Inhibitor (rate), 0 min / % Activity, 0 min: [0, D0]: 15 min preincubation inhibitor + TGR + NADPH, diluted 1:100, then activity determined immediately; for Inhibitor (rate), 0 min / Inhibitor (rate), 60 min / Inhibitor (rate), -15: raw rate; for % Activity, 0 min / % Activity, 60 min / % Activity, -15: relative to DMSO; for Inhibitor (rate), 60 min / % Activity, 60 min: [60, D60]: 15 min preincubation inhibitor + TGR + NADPH, diluted 1:100, then activity determined after 60 min; for Inhibitor (rate), -15 / % Activity, -15: [-15]: 15 min preincubation inhibitor + TGR + NADPH, then activity determined, replicates; for % Activity (ID list) / % Inhibition (ID list): before dilution (-15)
T1 construct: made in house
T1 sequence (Q962Y6 1-598): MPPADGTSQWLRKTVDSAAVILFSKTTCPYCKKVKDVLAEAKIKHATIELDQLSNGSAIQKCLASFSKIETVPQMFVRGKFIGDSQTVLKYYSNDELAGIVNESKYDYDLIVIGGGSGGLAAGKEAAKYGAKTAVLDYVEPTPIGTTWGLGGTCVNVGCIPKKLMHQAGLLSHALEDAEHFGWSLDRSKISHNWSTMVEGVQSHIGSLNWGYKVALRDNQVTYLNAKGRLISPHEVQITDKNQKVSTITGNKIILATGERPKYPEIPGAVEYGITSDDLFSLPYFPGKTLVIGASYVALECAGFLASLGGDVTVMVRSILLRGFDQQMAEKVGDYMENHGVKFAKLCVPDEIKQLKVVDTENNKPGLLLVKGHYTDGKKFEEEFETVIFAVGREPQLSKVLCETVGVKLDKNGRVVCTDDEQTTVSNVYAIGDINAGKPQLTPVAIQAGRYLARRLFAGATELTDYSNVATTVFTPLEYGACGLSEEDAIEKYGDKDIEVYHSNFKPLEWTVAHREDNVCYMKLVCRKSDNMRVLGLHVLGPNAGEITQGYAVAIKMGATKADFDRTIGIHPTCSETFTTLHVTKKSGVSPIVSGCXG
Protocol: A reaction of 370 nM TGR, 100 µM NADPH, and 250 µM inhibitor was incubated for 15 min at room temperature. A 100x dilution of the reaction was made and the activity was determined immediately and after 60 min.

[2] = biological target: T1, TGR; experiment: Time dependence of inhibition; set-up: avg % inhib, 0.5 hr / avg % inhib, 1 hr / avg % inhib, 2 hr / avg % inhib, 3 hr / avg % inhib, 6 hr / avg % inhib, 24 hr: tested at 50 µM; details: panel d Time Dependence; for avg % inhib, 0.5 hr / avg % inhib, 1 hr / avg % inhib, 2 hr / avg % inhib, 3 hr / avg % inhib, 6 hr / avg % inhib, 24 hr: average; for % inhib, 0.5 hr / % inhib, 1 hr / % inhib, 2 hr / % inhib, 3 hr / % inhib, 6 hr / % inhib, 24 hr: replicates
Protocol: TGR was incubated at room temperature (up to 6 h) and at 4 °C for 6 to 24 h with 50 µM inhibitor and 100 µM NADPH for the indicated times. Then DTNB (3 mM) and NADPH (100 µM) were added, and the reaction was monitored at A412 for 5 min. The assay was done in triplicate.

[3] = biological target: T2, PfTrxR (Plasmodium falciparum, UniProt Q25861); experiment: P. falciparum TrxR enzyme inhibition
T2 construct: 6-His (N); made in house; host or cells: E. coli BL21 (DE3)
T2 sequence (Q25861 1-541): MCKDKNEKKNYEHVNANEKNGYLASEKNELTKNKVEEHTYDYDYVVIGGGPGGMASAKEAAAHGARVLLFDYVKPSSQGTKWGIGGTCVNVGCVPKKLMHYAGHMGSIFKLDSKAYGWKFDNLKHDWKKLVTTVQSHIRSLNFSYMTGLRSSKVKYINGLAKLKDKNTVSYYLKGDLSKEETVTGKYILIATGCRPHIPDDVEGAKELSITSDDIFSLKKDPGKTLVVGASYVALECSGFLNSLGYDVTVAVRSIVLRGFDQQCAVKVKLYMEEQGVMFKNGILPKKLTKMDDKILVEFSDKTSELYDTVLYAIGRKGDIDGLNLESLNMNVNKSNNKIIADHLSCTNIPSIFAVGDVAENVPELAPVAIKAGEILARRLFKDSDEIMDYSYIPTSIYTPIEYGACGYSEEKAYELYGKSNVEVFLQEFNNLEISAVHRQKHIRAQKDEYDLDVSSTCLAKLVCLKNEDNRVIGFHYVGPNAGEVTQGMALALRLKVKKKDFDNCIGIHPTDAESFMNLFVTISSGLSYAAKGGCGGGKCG

[4] = biological target: BmTrxR (Brugia malayi, UniProt A0A1I9G0T9); experiment: B. malayi TrxR enzyme inhibition; details: for inhibition at 10 µM: 10 µM compound; for inhibition at 25 µM: 25 µM compound
Outline: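 Recombinant, purified BmTrxR in a DTNB reduction assay: reaction started with an equal volume of DTNB (6 mM) and NADPH (100 µM), and the A412 increase over the first 3 min recorded. Run in triplicate; IC50 from curve fitting.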

[5] = D0: diluted 1:100, activity determined immediately, list for plotting
[6] = 50 µM, the highest concentration tested
[7] = BmTrxR, mean of 3 replicates, read-out: % inhibition
[8] = BmTrxR, 50 µM compound, mean of 3 replicates, read-out: % inhibition

Chain of BmTrxR (A0A1I9G0T9 entry or part of it, added parts left off): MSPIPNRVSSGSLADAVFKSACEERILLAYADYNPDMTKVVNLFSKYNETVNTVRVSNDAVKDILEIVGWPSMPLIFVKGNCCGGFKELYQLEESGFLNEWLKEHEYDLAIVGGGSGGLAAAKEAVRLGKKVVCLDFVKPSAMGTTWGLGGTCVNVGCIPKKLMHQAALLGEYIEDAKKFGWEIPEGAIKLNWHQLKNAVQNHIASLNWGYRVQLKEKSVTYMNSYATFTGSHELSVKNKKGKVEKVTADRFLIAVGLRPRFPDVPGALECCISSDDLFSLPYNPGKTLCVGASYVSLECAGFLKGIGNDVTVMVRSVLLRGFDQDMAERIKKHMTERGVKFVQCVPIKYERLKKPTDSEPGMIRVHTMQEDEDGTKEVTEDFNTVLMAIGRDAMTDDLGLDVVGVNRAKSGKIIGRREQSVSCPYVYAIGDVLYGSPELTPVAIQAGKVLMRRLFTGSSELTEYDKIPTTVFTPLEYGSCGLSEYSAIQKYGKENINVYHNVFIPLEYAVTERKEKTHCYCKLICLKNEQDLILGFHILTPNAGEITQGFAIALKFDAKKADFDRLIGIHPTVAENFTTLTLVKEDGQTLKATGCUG

SMILES: Cc1oc(C2CCCCC2)nc1CN[C@@H]1C[C@@H]2C[C@H]([C@H]1C)C2(C)C [Compound 4]
- % Activity (ID list), D0 [1, 5]: 102.5% and 102.9% and 117.3%
- % Activity (ID list), D60 ([1]; list for plotting): 106.3%
- % Inhibition (ID list), D60 ([1]; list for plotting): -15.2% and -8.7% and -6.3%
- Inhibitor (rate), 0 min [1]: 0.04729 and 0.04838 and 0.05087
- % Activity, 0 min [1]: 102.47% and 102.936% and 117.347%
- Inhibitor (rate), 60 min [1]: 0.04596 and 0.04643 and 0.04838
- % Activity, 60 min [1]: 106.315% and 104.173% and 103.664%
- Inhibitor (rate), -15 [1]: 0.01214 and 0.0123 and 0.01219
- % Activity, -15 [1]: 35.2293% and 34.0532% and 34.3671%
- % Activity (ID list) ([1]; list for plotting): 35.2% and 34.1% and 34.4%
- % Inhibition (ID list) ([1]; list for plotting): 64.8% and 65.9% and 65.6%
- rate, 0.5 hr [2]: 0.06468 and 0.06599 and 0.06659
- avg % inhib, 0.5 hr [2]: 18.4758%
- % inhib, 0.5 hr [2]: 18.6722% and 19.1992% and 17.556%
- rate, 1 hr [2]: 0.05061 and 0.05195 and 0.05284
- avg % inhib, 1 hr [2]: 30.1534%
- % inhib, 1 hr [2]: 31.2738% and 29.387% and 29.7994%
- rate, 2 hr [2]: 0.03578 and 0.03672 and 0.03844
- avg % inhib, 2 hr [2]: 45.3087%
- % inhib, 2 hr [2]: 46.082% and 46.1584% and 43.6859%
- rate, 3 hr [2]: 0.02569 and 0.02601 and 0.02662
- avg % inhib, 3 hr [2]: 55.4006%
- % inhib, 3 hr [2]: 55.9121% and 55.5156% and 54.774%
- rate, 6 hr [2]: 0.01404 and 0.01371
- avg % inhib, 6 hr [2]: 70.958%
- % inhib, 6 hr [2]: 70.2542% and 71.6618%
- rate, 24 hr [2]: 0.004212 and 0.004652 and 0.005413
- avg % inhib, 24 hr [2]: 87.319%
- % inhib, 24 hr [2]: 88.741% and 87.5248% and 85.6913%
- inhibition at 10 µM [3]: 1.8%
- inhibition at 25 µM [3]: 4.57%
- inhibition at 50 µM [3]: 18.1%
- inhibition at 50 µM ([3]; read-out: PfTrxR % inhibition at 50 µM): 18%
- BmTrxR % inhibition at 50 µM [4, 6]: n.i.
- inhibition at 10 µM [4, 7]: -0.192%
- inhibition at 25 µM [4, 7]: 0.661%
- inhibition at 50 µM [4, 8]: 0.575%

SMILES: Cc1oc(-c2ccc3ccccc3c2)nc1CNC1CCCCCC1 [Compound 5]
- % Activity (ID list), D0 [1, 5]: 94.7% and 95.5% and 104.1%
- % Inhibition (ID list), D0 [1, 5]: 5.3% and 4.5% and -4.1%
- % Activity (ID list), D60 ([1]; list for plotting): 114.3% and 110.2%
- % Inhibition (ID list), D60 ([1]; list for plotting): -11.2% and -14.3% and -10.2%
- Inhibitor (rate), 0 min [1]: 0.0437 and 0.04487 and 0.04514
- % Activity, 0 min [1]: 94.6912% and 95.4681% and 104.129%
- Inhibitor (rate), 60 min [1]: 0.04807 and 0.05093 and 0.05141
- % Activity, 60 min [1]: 111.196% and 114.27% and 110.156%
- Inhibitor (rate), -15 [1]: 0.01816 and 0.01807 and 0.01832
- % Activity, -15 [1]: 52.6988% and 50.0277% and 51.6493%
- % Activity (ID list) ([1]; list for plotting): 52.7% and 50.0% and 51.6%
- % Inhibition (ID list) ([1]; list for plotting): 47.3% and 50.0% and 48.4%
- rate, 0.5 hr [2]: 0.06403 and 0.06491 and 0.06611
- avg % inhib, 0.5 hr [2]: 19.3871%
- % inhib, 0.5 hr [2]: 19.4895% and 20.5216% and 18.1503%
- rate, 1 hr [2]: 0.05507 and 0.05598 and 0.05641
- avg % inhib, 1 hr [2]: 24.7276%
- % inhib, 1 hr [2]: 25.2173% and 23.9092% and 25.0565%
- rate, 2 hr [2]: 0.04485 and 0.04477 and 0.04629
- avg % inhib, 2 hr [2]: 32.9849%
- % inhib, 2 hr [2]: 32.4141% and 34.3548% and 32.1858%
- rate, 3 hr [2]: 0.03515 and 0.03538 and 0.0359
- avg % inhib, 3 hr [2]: 39.3918%
- % inhib, 3 hr [2]: 39.6774% and 39.4903% and 39.0078%
- rate, 6 hr [2]: 0.02164 and 0.02197 and 0.02345
- avg % inhib, 6 hr [2]: 53.9938%
- % inhib, 6 hr [2]: 54.1525% and 54.5887% and 53.2403%
- rate, 24 hr [2]: 0.00977 and 0.01005 and 0.01035
- avg % inhib, 24 hr [2]: 73.1913%
- % inhib, 24 hr [2]: 73.884% and 73.0491% and 72.6408%
- inhibition at 10 µM [3]: -1.11%
- inhibition at 25 µM [3]: -0.0146%
- inhibition at 50 µM [3]: -1.37%
- PfTrxR % inhibition at 50 µM [3, 6]: n.i.
- inhibition at 10 µM [4, 7]: -0.384%
- inhibition at 25 µM [4, 7]: 3.27%
- inhibition at 50 µM [4, 8]: 9.07%
- inhibition at 50 µM ([4]; read-out: BmTrxR % inhibition at 50 µM, 50 µM, the highest concentration tested): 9%
